Read-outs that look alike come from different tables or passages of the source.
Legend:
[1] = Phase I pharmacokinetics, single intravenous infusion; details: human, in vivo
Protocol: The primary objective of the study was to assess the safety and tolerability of XG-102 following intravenous (iv) infusion of single escalating doses of XG-102 to healthy male volunteers. The secondary objective of the study was to assess the pharmacokinetics of XG-102 following iv infusion of single escalating doses of XG-102 to healthy male volunteers. Doses were administered as a 60 minute iv infusion. For control purposes, placebo iv infusion was administered to control subjects. This was a single-centre, randomized, double blind, placebo controlled, ascending single dose, sequential group study. […] Screening was performed in the 3-week period prior to dosing. Dosing occurred on Day 0 for each subject. […] Data for all subjects were included in the safety analyses; data for all subjects who received XG-102 were included in the pharmacokinetic analyses.

db/db mice = details: mouse, in vivo, sc, 10 mg/kg
Description: i) Animals • A total of twenty (20) male db/db mice (8 weeks old) were obtained from Charles River (Germany). Upon arrival, animals were group housed (n=6-7/group) and offered regular rodent chow (Altromin standard #1324 chow; C. Petersen, Ringsted, Denmark) and water ad libitum unless otherwise stated. The mice were housed under a 12:12 L/D cycle (lights on at 4:00 and lights off at 16:00) and in temperature and humidity controlled rooms.
ii) Groups and Randomization • On day −4, mice were randomized according to blood glucose level (fasted; blood glucose measured on Biosen S line analyzer (EKF diagnostic, Germany) to participate in one of the following drug treatment groups (n=6): • 1) Vehicle control, S.C. (physiological saline) • 2) XG-102 (SEQ ID NO: 11); 1 mg/kg; s.c. • 3) XG-102 (SEQ ID NO: 11); 10 mg/kg; s.c • All doses listed were calculated for the free-base. […] All compounds were administered sub-cutaneously (s.c.) in a volume of 3 ml/kg. The formulation instructions for vehicle control and XG-102 (SEQ ID NO: 11) were as follows: • First, XG-102 (SEQ ID NO: 11) was dissolved in the vehicle. […]
i) Blood Glucose • Blood glucose was measured from 7 hour fasted animals 6 hours post dosing by collection of 10 μl blood samples from the tail-vein in hematocrite tubes and subsequent analysis on a Biosen s-line analyzer (EKE-diagnostic; Germany).

[2] = Phase II trial, safety and tolerability (adverse events)
Protocol: The criteria for evaluation of safety were:
An AE is therefore any unfavorable and unintended sign, symptom or disease temporally associated with the use of a medicinal product, whether or not considered related to the medicinal product.
Patients were analyzed as treated, i.e. according to the treatment which they received. The safety set was the primary analysis set for the safety analysis.
The present study was a double-blind study. All patients who were randomized and for whom the sub-conjunctival injection was started are included in the safety analysis by dose group. […] If the study treatment eye drops were stopped prematurely (i.e. before day 21), the patients concerned continued follow-up until day 28, in accordance with the study protocol.
Investigators assessed (in a blinded manner) the relationship of each reported AE to any of the study treatments. An event was considered to be related to study treatment if the Investigator ticked either ‘possible’ or ‘probable’ as the reply to this question.

[3] = system: Sprague-Dawley albino rats, light-induced photoreceptor cell death; format: in vivo
Protocol: The aim of this study was to investigate the dose effect of XG-102 on light-induced photoreceptor cell death.
Test item (XG-102: 30 mg/ml, 3 mg/ml, and 0.3 mg/ml) and vehicle (0.9% NaCl) were administered by intravitreal injection in right eyes the day before induction. The reference (Phenyl-N-test-Butylnitrone (PBN) (50 mg/kg)) and vehicle were intraperitoneally injected 30 min before induction then, 3 times during 12 hours of light exposition, then once after induction. Animals were placed in constant light (7000 lux) for 24 h. Electroretinograms (ERG) were recorded before light treatment and on days 9, 16 and 23 after induction. Eyes were then taken for histology and outer nuclear layer (ONL) thickness assessment. The table below summarizes the allocation of animals in treatment groups:
For the intravitreal injection animals were anesthetized by intramuscular injection of a mixture of xylazine/ketamine. Test item (5 μl) and vehicle (5 μl) were injected in the right eye. The injection was performed under an operating microscope in the supratemporal area at pars plana using a 33G-needle mounted on a 50 μl Hamilton. The filled syringe was mounted into the UltraMicroPump III to achieve accurate injection in microliter range. Reference and vehicle were injected intraperitoneally at a dose volume of 2.5 ml/kg using a 30G-needle mounted on a 1 ml-syringe.
Light Exposure: The rats that had been dark-adapted overnight were exposed for 24 hours to a continuous white fluorescent light (7000 lx) in clear plastic cages. Each cage contained one rat. After exposure, the rats returned to rearing cyclic light conditions.
ERG was recorded before induction and 7, 14 and 21 days after cessation of exposure (Days 9, 16 and 23) on right eyes of dark-adapted and anesthezied animals. The latency times (for a- and b-wave) and the a-wave and b-wave amplitudes were measured for each ERG; the latency times were expressed as millisecond and the a-wave and b-wave as a percentage of the baseline value obtained before light exposure. 15 min before measurement 10 μl Mydriaticum® (0.5% tropicamide) were instilled for pupillary dilatation.
Measurement of the ONL Thickness: After ERG testing, animal was euthanized by an overdose of pentobarbital and the right eyes were enucleated, fixed and embedded in paraffin. Sections (5 μm thick) were performed along the vertical meridian and stained with Trichrome-Masson. The vertical meridian included the optic nerve.

CC(C)C[C@@H](NC(=O)[C@@H](Cc1ccccc1)NC(=O)[C@H]1CCCN1C(=O)[C@@H](CCC(N)=O)NC(=O)[C@H](NC(=O)[C@H]1CCCN1C(=O)[C@@H](CCCNC(=N)N)NC(=O)[C@@H](CO)NC(=O)[C@@H](CCC(N)=O)NC(=O)[C@H](N)CC(=O)O)C(C)C)C(=O)N[C@H](CC(N)=O)C(=O)N[C@H](CC(C)C)C(=O)N[C@@H](C(=O)N[C@@H](C(=O)N1CCC[C@@H]1C(=O)N[C@H](CCCNC(=N)N)C(=O)N[C@H](CCCCN)C(=O)N1CCC[C@@H]1C(=O)N[C@H](CCCNC(=N)N)C(=O)N1CCC[C@@H]1C(=O)N1CCC[C@@H]1C(=O)N[C@H](CCCNC(=N)N)C(=O)N[C@H](CCCNC(=N)N)C(=O)N[C@H](CCCNC(=N)N)C(=O)N[C@H](CCC(N)=O)C(=O)N[C@H](CCCNC(=N)N)C(=O)N[C@H](CCCNC(=N)N)C(=O)N[C@H](CCCCN)C(=O)N[C@H](CCCCN)C(=O)N[C@H](CCCNC(=N)N)C(=O)NCC(=O)O)[C@H](C)O)[C@H](C)O [XG-102]
AUCextrap ([1]; 10 ug/kg): 34.1% | AUCextrap ([1]; 40 ug/kg): 6.7% | AUCextrap ([1]; 80 ug/kg): 2.9% | reaction at s.c. injection site (db/db mice): nodular fibrosis was observed in the subcutaneous tissue | patients with Intraocular pressure increased ([2]; XG-102 90 μg): 23% | percentage of patients who experienced an AE within 24 hours ([2]; XG-102 90 μg): 34% | overall tolerability ([2]; XG-102 90 μg and 900 μg): well tolerated in patients who underwent complex ocular surgery | Adverse events which led to an interruption of study treatment ([2]; XG-102 90 μg dose group): 11 (14.1%) number of events (%) | patients with Intraocular pressure increased ([2]; XG-102 900 μg): 10% | percentage of patients who experienced an AE within 24 hours ([2]; XG-102 900 μg): 27% | Adverse events which led to an interruption of study treatment ([2]; XG-102 900 μg dose group): 8 (11.6%) number of events (%) | ERG A-wave amplitude, percent of the baseline, Mean ± SD ([3]; XG-102 ivt 15 μg/eye, Day 23): 41.8 ± 23.6% | ERG B-wave amplitude, percent of the baseline, Mean ± SD ([3]; XG-102 ivt 15 μg/eye, Day 23): 56.5 ± 29.8% | ERG A-wave amplitude, percent of the baseline, Mean ± SD ([3]; XG-102 ivt 150 μg/eye, Day 9): 23.6 ± 25.3% | ERG B-wave amplitude, percent of the baseline, Mean ± SD ([3]; XG-102 ivt 150 μg/eye, Day 9): 31.9 ± 42.6% | ERG A-wave amplitude, percent of the baseline, Mean ± SD ([3]; XG-102 ivt 150 μg/eye, Day 16): 24.1 ± 28.1% | ERG B-wave amplitude, percent of the baseline, Mean ± SD ([3]; XG-102 ivt 150 μg/eye, Day 16): 38.9 ± 51.5% | ERG A-wave amplitude, percent of the baseline, Mean ± SD ([3]; XG-102 ivt 150 μg/eye, Day 23): 23.7 ± 27.2% | ERG B-wave amplitude, percent of the baseline, Mean ± SD ([3]; XG-102 ivt 150 μg/eye, Day 23): 37.1 ± 54.4%
